Activity data for 2 molecules are collected here from ChEMBL document CHEMBL2417394, “Exquisite selectivity for human toll-like receptor 8 in substituted furo[2,3-c]quinolines” (J Med Chem, 2013).

Experiment [1] has as its target Nucleotide-binding oligomerization domain-containing protein 2 (Homo sapiens) (UniProt Q9HC29). Briefly: Modulation of NOD2 (unknown origin).
Experiment [2] addresses T1, Nucleotide-binding oligomerization domain-containing protein 1 (Homo sapiens) (UniProt Q9Y239).
T1 sequence (whole entry): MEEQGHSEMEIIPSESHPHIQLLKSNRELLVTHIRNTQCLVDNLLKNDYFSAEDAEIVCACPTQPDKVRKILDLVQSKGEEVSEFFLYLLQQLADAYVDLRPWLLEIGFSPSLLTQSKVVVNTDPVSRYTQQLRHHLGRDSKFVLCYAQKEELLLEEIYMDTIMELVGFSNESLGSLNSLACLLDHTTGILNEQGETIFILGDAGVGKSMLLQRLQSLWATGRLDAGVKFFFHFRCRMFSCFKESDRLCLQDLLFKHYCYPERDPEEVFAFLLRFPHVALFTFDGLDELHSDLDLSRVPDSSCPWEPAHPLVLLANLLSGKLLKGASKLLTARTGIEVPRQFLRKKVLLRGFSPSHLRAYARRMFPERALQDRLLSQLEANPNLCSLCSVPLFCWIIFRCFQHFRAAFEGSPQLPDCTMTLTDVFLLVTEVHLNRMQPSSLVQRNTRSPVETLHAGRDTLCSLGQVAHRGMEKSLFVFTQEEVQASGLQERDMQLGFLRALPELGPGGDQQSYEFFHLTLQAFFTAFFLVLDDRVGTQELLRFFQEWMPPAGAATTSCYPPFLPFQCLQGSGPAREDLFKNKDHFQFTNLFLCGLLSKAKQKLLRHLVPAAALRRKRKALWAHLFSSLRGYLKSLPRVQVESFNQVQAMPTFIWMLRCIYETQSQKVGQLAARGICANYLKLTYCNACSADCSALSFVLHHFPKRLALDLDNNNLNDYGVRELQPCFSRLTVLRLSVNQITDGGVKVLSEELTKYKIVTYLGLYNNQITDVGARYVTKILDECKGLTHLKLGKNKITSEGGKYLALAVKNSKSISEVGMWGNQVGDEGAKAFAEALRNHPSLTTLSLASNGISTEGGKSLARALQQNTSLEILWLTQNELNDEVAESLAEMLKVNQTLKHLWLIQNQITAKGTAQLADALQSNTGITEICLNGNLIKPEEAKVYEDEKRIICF
Briefly: Modulation of NOD1 (unknown origin).

For experiment [3], the target named is Toll-like receptor 5 (Homo sapiens) (UniProt O60602). Briefly: Modulation of human TLR5 expressed in HEK293 cells co-transfected with MD2 and sAP assessed as induction of NF-kappaB activity by reporter gene assay. In kind it is cell-based. (In general: In a reporter assay the amount or activity of a reporter protein is the signal.)
Chain of Toll-like receptor 5 (Homo sapiens) (O60602 whole entry): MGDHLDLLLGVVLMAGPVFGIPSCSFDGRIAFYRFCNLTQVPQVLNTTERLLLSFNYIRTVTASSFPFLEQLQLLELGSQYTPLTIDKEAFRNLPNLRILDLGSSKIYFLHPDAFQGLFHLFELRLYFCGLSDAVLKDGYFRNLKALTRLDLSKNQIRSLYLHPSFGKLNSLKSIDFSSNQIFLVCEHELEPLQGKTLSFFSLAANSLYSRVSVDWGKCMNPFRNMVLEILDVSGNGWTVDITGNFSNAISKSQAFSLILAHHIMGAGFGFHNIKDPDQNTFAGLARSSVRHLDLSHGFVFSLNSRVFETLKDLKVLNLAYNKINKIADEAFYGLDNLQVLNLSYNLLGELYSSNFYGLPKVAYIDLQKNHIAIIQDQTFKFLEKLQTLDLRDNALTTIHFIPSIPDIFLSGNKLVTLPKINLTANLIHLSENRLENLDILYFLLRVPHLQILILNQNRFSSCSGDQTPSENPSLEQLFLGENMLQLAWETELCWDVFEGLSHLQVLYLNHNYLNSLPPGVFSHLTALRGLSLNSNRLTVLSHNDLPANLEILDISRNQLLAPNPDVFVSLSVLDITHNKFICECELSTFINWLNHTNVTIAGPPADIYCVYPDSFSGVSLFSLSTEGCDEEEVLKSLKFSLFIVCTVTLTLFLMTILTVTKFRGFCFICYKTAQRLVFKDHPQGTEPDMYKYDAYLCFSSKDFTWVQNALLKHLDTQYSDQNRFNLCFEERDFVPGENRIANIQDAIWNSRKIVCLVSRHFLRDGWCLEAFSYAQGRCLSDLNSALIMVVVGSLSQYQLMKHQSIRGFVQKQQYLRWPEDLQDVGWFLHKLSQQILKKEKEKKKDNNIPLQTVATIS
The target in experiment [4] is T2, Toll-like receptor 7 (Homo sapiens) (UniProt Q9NYK1).
T2 sequence (whole entry): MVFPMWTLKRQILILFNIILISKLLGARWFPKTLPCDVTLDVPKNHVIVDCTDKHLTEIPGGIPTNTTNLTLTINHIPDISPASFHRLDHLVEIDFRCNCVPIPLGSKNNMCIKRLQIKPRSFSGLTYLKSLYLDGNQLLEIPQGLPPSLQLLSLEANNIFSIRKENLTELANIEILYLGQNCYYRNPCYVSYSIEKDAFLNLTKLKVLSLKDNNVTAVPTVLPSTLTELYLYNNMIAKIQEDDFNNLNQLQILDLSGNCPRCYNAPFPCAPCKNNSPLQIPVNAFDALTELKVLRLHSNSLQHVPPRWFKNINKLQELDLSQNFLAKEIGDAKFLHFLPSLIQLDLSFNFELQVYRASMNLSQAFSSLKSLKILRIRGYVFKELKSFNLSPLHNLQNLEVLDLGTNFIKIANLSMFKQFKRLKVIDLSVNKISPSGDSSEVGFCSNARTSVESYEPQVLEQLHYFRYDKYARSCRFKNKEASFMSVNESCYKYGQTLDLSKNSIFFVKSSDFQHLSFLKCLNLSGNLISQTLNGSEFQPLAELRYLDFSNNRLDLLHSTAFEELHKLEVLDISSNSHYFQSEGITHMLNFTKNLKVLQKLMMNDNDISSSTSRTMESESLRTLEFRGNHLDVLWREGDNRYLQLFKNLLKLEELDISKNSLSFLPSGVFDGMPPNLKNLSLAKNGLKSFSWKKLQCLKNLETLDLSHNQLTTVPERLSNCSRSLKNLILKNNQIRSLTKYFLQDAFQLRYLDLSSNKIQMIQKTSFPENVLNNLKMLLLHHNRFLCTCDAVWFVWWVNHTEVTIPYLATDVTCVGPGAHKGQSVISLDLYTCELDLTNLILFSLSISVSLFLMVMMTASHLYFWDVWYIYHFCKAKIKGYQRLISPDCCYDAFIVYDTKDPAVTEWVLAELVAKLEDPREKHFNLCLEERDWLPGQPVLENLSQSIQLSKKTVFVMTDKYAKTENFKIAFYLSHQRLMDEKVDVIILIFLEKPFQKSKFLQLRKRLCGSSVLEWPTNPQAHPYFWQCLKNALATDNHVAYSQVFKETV
Briefly: Modulation of human TLR7 expressed in HEK293 cells co-transfected with MD2 and sAP assessed as induction of NF-kappaB activity by reporter gene assay. In kind it is cell-based.

SMILES strings stand for the structures. Calls of active or inactive are those of the source. No cut-off for these calls is given here.

Chain of Nucleotide-binding oligomerization domain-containing protein 2 (Homo sapiens) (Q9HC29 whole entry, the tested form may be a part): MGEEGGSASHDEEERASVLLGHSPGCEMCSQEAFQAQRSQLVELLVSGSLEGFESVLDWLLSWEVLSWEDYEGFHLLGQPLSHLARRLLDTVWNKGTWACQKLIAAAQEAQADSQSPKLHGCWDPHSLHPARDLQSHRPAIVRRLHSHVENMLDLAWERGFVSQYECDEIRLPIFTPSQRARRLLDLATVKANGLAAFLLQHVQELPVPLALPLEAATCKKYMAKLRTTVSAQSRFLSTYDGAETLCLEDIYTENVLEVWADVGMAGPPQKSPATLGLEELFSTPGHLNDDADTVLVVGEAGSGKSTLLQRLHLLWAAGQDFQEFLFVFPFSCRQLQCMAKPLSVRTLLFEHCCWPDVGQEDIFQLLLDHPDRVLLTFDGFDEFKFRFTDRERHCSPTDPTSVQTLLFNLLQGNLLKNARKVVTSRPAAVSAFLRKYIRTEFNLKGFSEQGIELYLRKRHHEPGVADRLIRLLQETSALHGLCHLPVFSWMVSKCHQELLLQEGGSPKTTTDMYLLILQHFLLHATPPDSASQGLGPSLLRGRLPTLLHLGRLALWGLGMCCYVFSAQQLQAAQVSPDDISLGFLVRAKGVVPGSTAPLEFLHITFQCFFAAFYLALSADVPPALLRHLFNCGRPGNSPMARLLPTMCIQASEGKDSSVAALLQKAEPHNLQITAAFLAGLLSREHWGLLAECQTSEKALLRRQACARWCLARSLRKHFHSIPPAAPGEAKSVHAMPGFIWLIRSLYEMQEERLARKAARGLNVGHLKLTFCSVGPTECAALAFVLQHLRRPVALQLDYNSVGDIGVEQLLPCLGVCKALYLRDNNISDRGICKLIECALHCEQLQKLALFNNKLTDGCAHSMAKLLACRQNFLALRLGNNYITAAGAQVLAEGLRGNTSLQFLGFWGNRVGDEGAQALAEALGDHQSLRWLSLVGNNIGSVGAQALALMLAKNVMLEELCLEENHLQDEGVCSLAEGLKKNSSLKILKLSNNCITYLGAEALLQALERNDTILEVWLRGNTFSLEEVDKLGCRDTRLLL

For `NCCc1cc2c(o1)c(N)nc1ccccc12`, the result in experiment [1], in experiment [2], in experiment [3] and in experiment [4] was Active.

With `CCCCc1cc2c(nc(N)c3ccccc32)o1`, the result in experiment [3] and in experiment [4] was inactive.
